Test results from patent publication US20200253877A1, “GEMCABENE, PHARMACEUTICALLY ACCEPTABLE SALTS THEREOF, COMPOSITIONS THEREOF AND METHODS OF USE THEREFOR” (NEUROBO PHARMACEUTICALS, INC., priority 2018, published 2020).

Columns and labels:
[1] = Solubility of gemcabene calcium salt hydrate Crystal Form 1 by solvent addition method; format: physicochemical; details: thermodynamic from solid
Description: Approximately 20 mg of gemcabene calcium Crystal Form 1 was added to 5×2 mL vials. The solubility in 5 solvents was tested using a solvent addition method. Solvents included acetone, ethanol, ethyl acetate, t-butyl methyl ether (t-BME) and water. Solvent was added in 5 volume (100 μL) aliquots until either dissolution or 2 mL in total had been added. Between each addition, samples were heated to 60° C. (40° C. for acetone and t-BME). Any solids remaining after 24 hours at ambient were analyzed by X-ray powder diffraction (XRPD).

[2] = Stability study of gemcabene calcium salt forms (XRPD form, HPLC/CAD purity); format: physicochemical
Description: The stability studies were carried out using storage conditions at a) 40° C. and 75% relative humidity (RH), b) at 80° C. and c) at ambient temperature (approximately 22° C.). After 7 days and 14 days, the samples were removed from the relevant storage conditions and initially analyzed by XRPD to identify any form changes. The samples were then analyzed by HPLC/CAD (high-performance liquid chromatography equipped with a charged aerosol detector) for purity, with all solid purity values given on a w/w % basis.

[3] = test system: patients with familial hypercholesterolemia (FH); assay: Open-label escalating-dose study (300, 600, 900 mg) in familial hypercholesterolemia patients on stable lipid-lowering therapy: LDL-C; format: in vivo, human; details: Patient 1
Description: A study was performed to evaluate the efficacy of film-coated Tablet D in treating patients with familial hypercholesterolemia (FH) and who are on stable, lipid-lowering therapy. Male and female patients ≥17 years of age who had been diagnosed with FH by genetic confirmation or a clinical diagnosis based on either (1) a history of an untreated LDL-C concentration ≥500 mg/dl (12.92 mmol/L) together with either appearance of xanthoma before 10 years of age, or evidence of familial hypercholesterolemia in both parents or (2) LDL-C >300 mg/dl (7.76 mmol/L) on maximally tolerated lipid-lowering drug therapy were enrolled in the study.
The study was a 3-period, 3-treatment study using successively escalating doses of 300 mg, 600 mg, and 900 mg gemcabene calcium salt hydrate Crystal Form 1 (PSD90=52 μm). All patients were on each of the successive doses for 4 weeks at a time. Patients remained on their stable, lipid-lowering therapy throughout the study.
Each patient received one 300 mg gemcabene calcium salt hydrate Crystal Form 1 tablet (film-coated Tablet D) orally QD (alternatively written as q.d.; meaning “once a day”) for 4 weeks. The same patients then received 600 mg gemcabene calcium salt hydrate Crystal Form 1 orally QD for 4 weeks. The 600 mg dose consisted of two 300-mg tablets (film-coated Tablet D×2). […]
LDL-C values were measured after the patient had been administered film-coated Tablet D for 2 weeks for each dosing level and on the last day of each dose. For each escalated dose, percent change from baseline in LDL-C was calculated using the baseline LDL-C value and the final LDL-C value measured for each dose. […]
This was an open-label, dose-finding, 3-period, 3-treatment study using successively escalating doses of 300 mg, 600 mg, and 900 mg gemcabene calcium salt hydrate Crystal Form 1 having PSD90 of 52 μm in patients clinically diagnosed with familial hypercholesterolemia (FH). […] Plasma from these samples were analyzed for gemcabene concentrations and the data used for PK analysis. […]

[4] = Integrated analysis of efficacy from completed clinical studies: LDL-C; format: in vivo, human; details: inclusive of all background therapies
Source text: Gemcabene calcium salt hydrate Crystal Form 1 given on top of steady-state statins has shown a statin-intensity dependent effect. […] Statins inhibit cholesterol synthesis and upregulate LDL receptor expression to effect LDL-C reduction.

**Q.** What does the source list for CC(C)(CCCCOCCCCC(C)(C)C(=O)O)C(=O)O.[Ca] [6-(5-Carboxy-5-methyl-hexyloxy)-2,2-dimethylhexanoic acid calcium]?
**A.** solubility ([1]; organic solvent or mixture, Acetone, heated to 40° C. between additions): < 10000 µg/mL; solubility ([1]; organic solvent or mixture, Ethanol, heated to 60° C. between additions): < 10000 µg/mL; solubility ([1]; organic solvent or mixture, Ethyl Acetate, heated to 60° C. between additions): < 10000 µg/mL; solubility ([1]; organic solvent or mixture, t-Butyl Methyl Ether (t-BME), heated to 40° C. between additions): < 10000 µg/mL; solubility ([1]; Water, heated to 60° C. between additions): 33000 µg/mL; change in form (XRPD) ([2]; 2-week study, 40° C./75% RH, 80° C. and ambient): No change in the form; Form (XRPD) ([2]; 40° C./75% RH, 1 Week): Form 1; Purity ([2]; 40° C./75% RH, 1 Week): 80.8%; Form (XRPD) ([2]; 40° C./75% RH, 2 Weeks): Form 1; Purity ([2]; 40° C./75% RH, 2 Weeks): 84.2%; Form (XRPD) ([2]; 80° C., 1 Week): Form 1; Purity ([2]; 80° C., 1 Week): 80.6%; Form (XRPD) ([2]; 80° C., 2 Weeks): Form 1; Purity ([2]; 80° C., 2 Weeks): 83.9%; Form (XRPD) ([2]; Ambient, 1 Week): Form 1; Purity ([2]; Ambient, 1 Week): 80.7%; Form (XRPD) ([2]; Ambient, 2 Weeks): Form 1; Purity ([2]; Ambient, 2 Weeks): 84.6%; purity (HPLC/CAD) compared to the starting form ([2]; after 2 weeks storage, all 3 storage conditions): drop in purity; Starting Purity ([2]; before storage, HPLC/CAD, w/w %): 87.5%; LDL-C reduction compared to baseline ([3]; 300 mg oral QD, 4 weeks): 55.2%; LDL-C reduction compared to baseline ([3]; 600 mg oral QD, 8 weeks): 49.8%; LDL-C reduction compared to baseline ([3]; 900 mg oral QD, 12 weeks): 54.5%; mean LDL-C reduction [4]: about 21%
